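1) Cells in 96-well plates. 2) Compound, 48 h, 5 concentrations. 3) Linear interpolation between surrounding doses. 4) Unreached endpoint = highest concentration. GI50 marks 50% less growth.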 Active and inactive are the calls of the source. Rule as the data show it: active = GI50 up to about 1.1 µM and inactive = higher.
Key:
Test in all cases: growth of human tumour cells (NCI), 48 h
MOLT-4 = tested on: MOLT-4
OVCAR-5 = tested on: OVCAR-5
SR = tested on: SR
HT-29 = tested on: HT-29
RPMI-8226 = tested on: RPMI-8226
HL-60 = tested on: HL-60
NCI/ADR-RES = tested on: NCI/ADR-RES
HCT-116 = tested on: HCT-116
A549 = tested on: A549
HCT-15 = tested on: HCT-15
COLO 205 = tested on: COLO 205
UACC-257 = tested on: UACC-257
NCI-H23 = tested on: NCI-H23
PC-3 = tested on: PC-3
A498 = tested on: A498
RXF 393 = tested on: RXF 393
MDA-N = tested on: MDA-N
BT-549 = tested on: BT-549
U-251 = tested on: U-251
SF-539 = tested on: SF-539
ACHN = tested on: ACHN
SK-OV-3 = tested on: SK-OV-3
KM12 = tested on: KM12
MCF7 = tested on: MCF7
HOP-62 = tested on: HOP-62
NCI-H226 = tested on: NCI-H226
MDA-MB-231 = tested on: MDA-MB-231
OVCAR-3 = tested on: OVCAR-3
SK-MEL-28 = tested on: SK-MEL-28
DU-145 = tested on: DU-145
K562 = tested on: K562
M14 = tested on: M14
LOX IMVI = tested on: LOX IMVI
SNB-75 = tested on: SNB-75
SK-MEL-5 = tested on: SK-MEL-5
SK-MEL-2 = tested on: SK-MEL-2
CAKI-1 = tested on: CAKI-1
Malme-3M = tested on: Malme-3M
IGROV-1 = tested on: IGROV-1
SF-295 = tested on: SF-295
HOP-92 = tested on: HOP-92
HCC 2998 = tested on: HCC 2998
OVCAR-4 = tested on: OVCAR-4
OVCAR-8 = tested on: OVCAR-8
SN12C = tested on: SN12C
786-0 = tested on: 786-0
CCRF-CEM = tested on: CCRF-CEM
UO-31 = tested on: UO-31
SNB-19 = tested on: SNB-19
MDA-MB-435 = tested on: MDA-MB-435
NCI-H522 = tested on: NCI-H522
SW-620 = tested on: SW-620
EKVX = tested on: EKVX
NCI-H460 = tested on: NCI-H460
UACC-62 = tested on: UACC-62
SF-268 = tested on: SF-268
Hs-578T = tested on: Hs-578T
T47D = tested on: T47D
TK-10 = tested on: TK-10

Measured: GI50

CC1C(=O)C(C)C(c2ccccc2)N(C)C1c1ccccc1 (centres undefined)
inactive: MOLT-4 19.9 µM | OVCAR-5 50.9 µM | SR 20.2 µM | HT-29 28.6 µM | RPMI-8226 21.8 µM | HL-60 20.7 µM

O=S(=O)(SC1=NCCN1)c1cccc2ccccc12
35.3 µM: HCT-15
inactive: NCI/ADR-RES 26.5 µM | HCT-116 30.3 µM | A549 22.8 µM | COLO 205 17.8 µM | UACC-257 28.5 µM | NCI-H23 28.4 µM | PC-3 29.8 µM | A498 26.1 µM | RXF 393 23.9 µM | MDA-N 18.7 µM | MOLT-4 27.7 µM | BT-549 22.9 µM | OVCAR-5 22.1 µM | U-251 35.1 µM | SF-539 20.3 µM | ACHN 27 µM | SK-OV-3 19.5 µM | KM12 17.9 µM | MCF7 30.9 µM | HOP-62 31.3 µM | NCI-H226 21.6 µM | MDA-MB-231 22.1 µM | OVCAR-3 44 µM | SK-MEL-28 47 µM | DU-145 29.6 µM | K562 24 µM | M14 27.6 µM | LOX IMVI 43.8 µM | SNB-75 13.8 µM | SK-MEL-5 19.1 µM | SK-MEL-2 23.7 µM | SR > 10 µM | CAKI-1 24.9 µM | Malme-3M 32 µM | IGROV-1 21.7 µM | SF-295 24.1 µM | HOP-92 36.8 µM | HT-29 28.7 µM | HCC 2998 > 10 µM | OVCAR-4 26.2 µM | OVCAR-8 28.8 µM | SN12C 23 µM | 786-0 25.4 µM | CCRF-CEM 21.8 µM | UO-31 35.9 µM | SNB-19 28.7 µM | MDA-MB-435 29.6 µM | NCI-H522 14.4 µM | SW-620 32.7 µM | RPMI-8226 19.1 µM | EKVX 30.1 µM | NCI-H460 22.7 µM | HL-60 > 10 µM | UACC-62 34.4 µM

c1cc2nnc1SCCSCCSCCSc1ccc(nn1)SCCSCCSCCS2
> 100 µM: HCT-15
inactive: NCI/ADR-RES > 100 µM | A549 > 100 µM | COLO 205 > 100 µM | UACC-257 > 100 µM | SF-268 > 100 µM | PC-3 > 100 µM | Hs-578T 64.7 µM | ACHN > 100 µM | SK-OV-3 > 100 µM | HOP-62 44.9 µM | MDA-MB-231 > 100 µM | OVCAR-3 > 100 µM | T47D > 100 µM | M14 > 100 µM | LOX IMVI > 100 µM | SNB-75 45.7 µM | SK-MEL-5 > 100 µM | SK-MEL-2 > 100 µM | SR > 100 µM | Malme-3M > 100 µM | IGROV-1 > 100 µM | SF-295 > 100 µM | HOP-92 57.4 µM | HT-29 > 100 µM | OVCAR-4 > 100 µM | OVCAR-8 > 100 µM | SN12C > 100 µM | NCI-H522 > 100 µM | SW-620 > 100 µM | EKVX > 100 µM | NCI-H460 > 100 µM | UACC-62 > 100 µM

CCOC(=O)N/N=C(\Cc1ccccc1)OCC
inactive: NCI/ADR-RES > 100 µM | HCT-116 > 100 µM | A549 > 100 µM | COLO 205 > 100 µM | UACC-257 > 100 µM | SF-268 > 100 µM | NCI-H23 > 100 µM | PC-3 > 100 µM | RXF 393 > 100 µM | MDA-N > 100 µM | MOLT-4 > 100 µM | BT-549 > 100 µM | OVCAR-5 > 100 µM | U-251 > 100 µM | SF-539 > 100 µM | ACHN > 100 µM | SK-OV-3 > 100 µM | KM12 > 100 µM | MCF7 > 100 µM | HOP-62 > 100 µM | TK-10 > 100 µM | MDA-MB-231 > 100 µM | OVCAR-3 > 100 µM | DU-145 > 100 µM | K562 > 100 µM | M14 > 100 µM | LOX IMVI > 100 µM | SNB-75 > 100 µM | SK-MEL-5 > 100 µM | SK-MEL-2 > 100 µM | SR > 100 µM | IGROV-1 > 100 µM | SF-295 > 100 µM | HOP-92 > 100 µM | HT-29 > 100 µM | HCC 2998 > 100 µM | OVCAR-4 > 100 µM | OVCAR-8 > 100 µM | SN12C > 100 µM | 786-0 > 100 µM | CCRF-CEM > 100 µM | UO-31 > 100 µM | SNB-19 > 100 µM | MDA-MB-435 > 100 µM | NCI-H522 > 100 µM | SW-620 > 100 µM | RPMI-8226 > 100 µM | EKVX > 100 µM | UACC-62 > 100 µM
> 100 µM: HCT-15

Reference: ChEMBL document CHEMBL1201862, “PubChem BioAssay data set” (2004)
